Results on 21 molecules are retold here after patent US20240228504A1, “SUBSTITUTED TRICYCLIC AMIDES, ANALOGUES THEREOF, AND METHODS USING SAME” (Arbutus Biopharma Corporation, priority 2020, published 2024).

Each structure is given as a SMILES string.

For the experiment, the system named is HBV rcDNA in HepDE19 cells. The experiment can be described thus: HepDE19 assay with bDNA quantitation of HBV rcDNA. The class given is cell-based, hepatitis B virus. The note with it: Hepatitis B virus, HepDE19, HepDE19 assay, inhibition of rcDNA formation, bDNA quantitation; read-out: DE-19bDNA EC50.
`CN(C(=O)c1ccc2ncsc2c1)[C@@H]1COCc2[nH]c(=O)c3cc(F)c(F)cc3c21` [Compound 428, (S)-N-(8,9-Difluoro-6-oxo-1,4,5,6-tetrahydro-2H-pyrano[3,4-c]isoquinolin-1-yl)-N-methylbenzo[d]thiazole-6-carboxamide]: the half-maximal effective concentration (EC50) was determined as 340 nM. The value for `CN(C(=O)c1ccc2[nH]ncc2c1)[C@@H]1COCc2[nH]c(=O)c3cc(F)c(F)cc3c21` [Compound 429, (S)-N-(8,9-Difluoro-6-oxo-1,4,5,6-tetrahydro-2H-pyrano[3,4-c]isoquinolin-1-yl)-N-methyl-1H-indazole-5-carboxamide] was 980 nM; that for `CN(C(=O)c1ccc2c(c1)c(C(F)F)nn2C)[C@@H]1COCc2[nH]c(=O)c3cc(F)c(F)cc3c21` [Compound 436, (S)-N-(8,9-Difluoro-6-oxo-1,4,5,6-tetrahydro-2H-pyrano[3,4-c]isoquinolin-1-yl)-3-(difluoromethyl)-N,1-dimethyl-1H-indazole-5-carboxamide] was 100 nM; that for `CN(C(=O)c1ccc2c(cnn2C(F)F)c1)[C@@H]1COCc2[nH]c(=O)c3cc(F)c(F)cc3c21` [Compound 437, (S)-N-(8,9-Difluoro-6-oxo-1,4,5,6-tetrahydro-2H-pyrano[3,4-c]isoquinolin-1-yl)-1-(difluoromethyl)-N-methyl-1H-indazole-5-carboxamide] was 5 nM. For `CN(C(=O)c1ccc2cn[nH]c2c1)[C@@H]1COCc2[nH]c(=O)c3cc(F)c(F)cc3c21` [Compound 450, (S)-N-(8,9-Difluoro-6-oxo-1,4,5,6-tetrahydro-2H-pyrano[3,4-c]isoquinolin-1-yl)-N-methyl-1H-indazole-6-carboxamide], the half-maximal effective concentration (EC50) stood at 110 nM. Consider `CN(C(=O)c1ccc2nc[nH]c2c1)[C@@H]1COCc2[nH]c(=O)c3cc(F)c(F)cc3c21` [Compound 451, (S)-N-(8,9-difluoro-6-oxo-1,4,5,6-tetrahydro-2H-pyrano[3,4-c]isoquinolin-1-yl)-N-methyl-1H-benzo[d]imidazole-6-carboxamide], for which the concentration giving a half-maximal response (EC50) is 12300 nM. The value for `CN(C(=O)c1cc2sc(C#N)cc2[nH]1)[C@@H]1COCc2[nH]c(=O)c3cc(F)c(F)cc3c21` [Compound 468] was 5 nM; that for `CN(C(=O)c1cc2sc(Cl)cc2[nH]1)[C@@H]1COC(=O)c2[nH]c(=O)c3cc(F)c(F)cc3c21` [Compound 477, (S)-2-Chloro-N-(8,9-difluoro-4,6-dioxo-1,4,5,6-tetrahydro-2H-pyrano[3,4-c]isoquinolin-1-yl)-N-methyl-4H-thieno[3,2-b]pyrrole-5-carboxamide] was 20 nM. For the molecule `CN(C(=O)c1cc2cc(F)c(C(F)F)cc2[nH]1)[C@@H]1COC(=O)c2[nH]c(=O)c3cc(F)c(F)cc3c21` [Compound 478, (S)-N-(8,9-Difluoro-4,6-dioxo-1,4,5,6-tetrahydro-2H-pyrano[3,4-c]isoquinolin-1-yl)-6-(difluoromethyl)-5-fluoro-N-methyl-1H-indole-2-carboxamide], the EC50 was found to be 10 nM. The same measure for `CN(C(=O)c1cc2cc(F)c(C(F)F)cc2[nH]1)[C@@H]1CCCc2[nH]c(=O)c3cc(F)ccc3c21` [Compound 479, (R)-6-(difluoromethyl)-5-fluoro-N-(8-fluoro-6-oxo-1,2,3,4,5,6-hexahydrophenanthridin-1-yl)-N-methyl-1H-indole-2-carboxamide]: 40 nM; for `CN(C(=O)c1cc2cc(F)ccc2[nH]1)[C@@H]1CCCc2[nH]c(=O)c3cc(F)c(F)cc3c21` [Compound 480, (R)-N-(8,9-difluoro-6-oxo-1,2,3,4,5,6-hexahydrophenanthridin-1-yl)-5-fluoro-N-methyl-1H-indole-2-carboxamide]: 10 nM. Consider `CN(C(=O)c1cc2cc(F)c(F)cc2[nH]1)[C@@H]1CCCc2[nH]c(=O)c3cc(F)c(F)cc3c21` [Compound 481, (R)-N-(8,9-difluoro-6-oxo-1,2,3,4,5,6-hexahydrophenanthridin-1-yl)-5,6-difluoro-N-methyl-1H-indole-2-carboxamide], for which the EC50 was determined as 10 nM. Take `CN(C(=O)c1cc2cc(F)c(C(F)F)cc2[nH]1)[C@@H]1CCCc2[nH]c(=O)c3cc(F)c(F)cc3c21` [Compound 482, (R)-N-(8,9-difluoro-6-oxo-1,2,3,4,5,6-hexahydrophenanthridin-1-yl)-6-(difluoromethyl)-5-fluoro-N-methyl-1H-indole-2-carboxamide]: the EC50 is 10 nM. In the case of `CN(C(=O)c1cc2c(C(F)F)cc(F)cc2[nH]1)[C@@H]1CCCc2[nH]c(=O)c3cc(F)c(F)cc3c21` [Compound 483, (R)-N-(8,9-difluoro-6-oxo-1,2,3,4,5,6-hexahydrophenanthridin-1-yl)-4-(difluoromethyl)-6-fluoro-N-methyl-1H-indole-2-carboxamide], the EC50 turned out to be 10 nM. As to `Cc1cccc2[nH]c(C(=O)N(C)[C@@H]3CCCc4[nH]c(=O)c5cc(F)c(F)cc5c43)cc12` [Compound 484, (R)-N-(8,9-difluoro-6-oxo-1,2,3,4,5,6-hexahydrophenanthridin-1-yl)-N,4-dimethyl-1H-indole-2-carboxamide], the EC50 amounted to 10 nM. `Cc1cc(F)cc2[nH]c(C(=O)N(C)[C@@H]3CCCc4[nH]c(=O)c5cc(F)c(F)cc5c43)cc12` [Compound 485, (R)-N-(8,9-difluoro-6-oxo-1,2,3,4,5,6-hexahydrophenanthridin-1-yl)-6-fluoro-N,4-dimethyl-1H-indole-2-carboxamide]: the EC50 turned out to be 10 nM. Regarding `CN(Cc1ccc(Br)c(F)c1)[C@@H]1COCc2[nH]c(=O)c3cc(F)c(F)cc3c21` [Compound 486, (S)-1-((4-bromo-3-fluorobenzyl)(methyl)amino)-8,9-difluoro-1,5-dihydro-2H-pyrano[3,4-c]isoquinolin-6(4H)-one], the EC50 amounted to 8280 nM.

On to `CN(C(=O)c1cc2sc(Cl)cc2[nH]1)[C@@H]1COC(O)c2[nH]c(=O)c3cc(F)c(F)cc3c21` (stereo partly drawn) [Compound 487, 2-Chloro-N-((1S)-8,9-difluoro-4-hydroxy-6-oxo-1,4,5,6-tetrahydro-2H-pyrano[3,4-c]isoquinolin-1-yl)-N-methyl-4H-thieno[3,2-b]pyrrole-5-carboxamide], for which the EC50 is 20 nM.

As to `CN(C(=O)c1cc2cc(F)c(C(F)F)cc2[nH]1)[C@@H]1COC(O)c2[nH]c(=O)c3cc(F)c(F)cc3c21` (stereo partly drawn) [Compound 488, N-((1S)-8,9-Difluoro-4-hydroxy-6-oxo-1,4,5,6-tetrahydro-2H-pyrano[3,4-c]isoquinolin-1-yl)-6-(difluoromethyl)-5-fluoro-N-methyl-1H-indole-2-carboxamide], the EC50 was 10 nM. With `CN(C(=O)c1cc2cc(F)ccc2[nH]1)[C@@H]1CCCc2[nH]c(=O)c3cc(F)ccc3c21` [Compound 489, (R)-5-Fluoro-N-(8-fluoro-6-oxo-1,2,3,4,5,6-hexahydrophenanthridin-1-yl)-N-methyl-11H-indole-2-carboxamide], the 50% effective concentration (EC50) was determined as 10 nM.

For `CN(C(=O)c1cc2cc(F)c(F)cc2[nH]1)[C@@H]1CCCc2[nH]c(=O)c3cc(F)ccc3c21` [Compound 490, (R)-5,6-difluoro-N-(8-fluoro-6-oxo-1,2,3,4,5,6-hexahydrophenanthridin-1-yl)-N-methyl-1H-indole-2-carboxamide], the EC50 stood at 20 nM.
